Measured values taken from patent publication US7795386B2, “Peptides comprising an isoDGR motif” (Molmed SpA, priority 2004, dated 2010).
Where two headings read alike, the source gives them in different places. One block for each molecule: values may come before it. *1 amine or outer side, *2 acyl side, *3 side chain or, on linkers, in order; H or OH if unused. Where a SMILES comes first, the peptide text is derived from it. Bridges are numbered along the chain shown (N, C = ends). [ ]: non-standard residue; d: D form. βAsp = O=C(O)[C@H](CC(=O)[*:2])N[*:1]

Columns and labels:
[1] = stability / deamidation kinetics of peptides by RP-HPLC; format: physicochemical; conditions: for stability under integrin binding assay conditions: assay conditions of competitive binding
Method: RP-HPLC analysis of NGR-pep and its synthetic deamidation products (DGR-pep and isoDGR-pep) before and after incubation for 4 h at 37° C. in 0.1 M ammonium bicarbonate buffer, pH 8.5 (A and B) and in DMEM, pH 7.3 (A, inset). RP-HPLC was performed on a C-18 column (PepMap C18, PerSeptive Biosystem) as follows: buffer A, 0.1% trifluoroacetic acid (TFA) in water; buffer B, 95% acetonitrile, 0.1% TFA; 0% B for 10 min, linear gradient 20-40% B in 30 min, 100% B for 10 min; 0% B for 15 min (flow rate, 0.5 ml/min). Peak 1, 2 and 3 were identified by spiking the NGR-pep, after 2 h of incubation, with equal amount of the indicated peptide (C). NGR-pep (peak 1) rapidly converts to compounds corresponding to DGR-pep (peak 2) and isoDGR-pep (peak 3) (half-life, 2-4 h).
The stability of NGR and the kinetics of LisoDGR or DDGR formation at pH 7.3 (DMEM) and pH 8.5 (ammonium bicarbonate), were then investigated. To this aim the CNGRCGVRY (SEQ ID NO: 42) peptide (called NGR-pep) was synthesized and analyzed by reverse-phase HPLC, before and after incubation at 37° C. Residues GVRY (SEQ ID NO: 72) were added to the C-terminus of CNGRC (SEQ ID NO: 6) to enable column adsorption. In addition five peptides called, DGR-pep, D-DGR-pep, isoDGR-pep, D-isoDGR and SGR-pep, corresponding to the same sequence of NGR-pep except for the presence of D, D-D, L-isoD, D-isoD and S, respectively in place of N were prepared. The half-life of NGR-pep at pH 7.3 and 8.5, estimated from the height of the main chromatographic peak (peak 1), was about 4 and 2 h, respectively (FIG. 5A, inset). Peptides corresponding to deamidation products were stable under these conditions (FIG. 5B).
To identify peaks and to verify that the measured half-life correspond to Asn deamidation, and not to other structural changes, we analyzed heat-treated NGR-pep peptide spiked with fresh NGR-pep, or DGR-pep or isoDGR-pep peptides.

αvβ3 = molecular target: T1, αvβ3 (Homo sapiens, UniProt P05106+P06756); assay: IC50 (μM)
T1 construct: purchased Immunological Sciences
T1 sequence (P05106 27-788 limits assumed): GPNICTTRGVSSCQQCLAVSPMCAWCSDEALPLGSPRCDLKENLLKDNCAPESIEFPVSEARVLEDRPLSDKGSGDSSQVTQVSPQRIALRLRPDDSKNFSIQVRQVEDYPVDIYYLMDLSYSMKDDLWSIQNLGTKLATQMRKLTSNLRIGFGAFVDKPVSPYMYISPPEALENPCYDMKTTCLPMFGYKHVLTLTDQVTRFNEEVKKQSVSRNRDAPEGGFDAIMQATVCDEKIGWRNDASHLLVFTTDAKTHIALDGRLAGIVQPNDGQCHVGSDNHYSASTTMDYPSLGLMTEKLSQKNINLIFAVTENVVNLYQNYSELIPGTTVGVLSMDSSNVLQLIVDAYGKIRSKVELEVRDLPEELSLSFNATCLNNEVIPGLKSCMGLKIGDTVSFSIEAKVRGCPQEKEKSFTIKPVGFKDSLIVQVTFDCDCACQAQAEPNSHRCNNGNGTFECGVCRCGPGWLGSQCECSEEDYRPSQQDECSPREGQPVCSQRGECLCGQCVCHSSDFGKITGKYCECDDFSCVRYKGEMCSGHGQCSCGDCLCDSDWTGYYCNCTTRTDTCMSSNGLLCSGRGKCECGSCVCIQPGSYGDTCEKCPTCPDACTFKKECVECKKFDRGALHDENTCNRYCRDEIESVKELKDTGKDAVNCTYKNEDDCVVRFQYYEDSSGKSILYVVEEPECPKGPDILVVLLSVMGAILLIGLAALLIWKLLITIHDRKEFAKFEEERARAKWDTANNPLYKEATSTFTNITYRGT
T1 sequence (P06756 31-889 limits assumed): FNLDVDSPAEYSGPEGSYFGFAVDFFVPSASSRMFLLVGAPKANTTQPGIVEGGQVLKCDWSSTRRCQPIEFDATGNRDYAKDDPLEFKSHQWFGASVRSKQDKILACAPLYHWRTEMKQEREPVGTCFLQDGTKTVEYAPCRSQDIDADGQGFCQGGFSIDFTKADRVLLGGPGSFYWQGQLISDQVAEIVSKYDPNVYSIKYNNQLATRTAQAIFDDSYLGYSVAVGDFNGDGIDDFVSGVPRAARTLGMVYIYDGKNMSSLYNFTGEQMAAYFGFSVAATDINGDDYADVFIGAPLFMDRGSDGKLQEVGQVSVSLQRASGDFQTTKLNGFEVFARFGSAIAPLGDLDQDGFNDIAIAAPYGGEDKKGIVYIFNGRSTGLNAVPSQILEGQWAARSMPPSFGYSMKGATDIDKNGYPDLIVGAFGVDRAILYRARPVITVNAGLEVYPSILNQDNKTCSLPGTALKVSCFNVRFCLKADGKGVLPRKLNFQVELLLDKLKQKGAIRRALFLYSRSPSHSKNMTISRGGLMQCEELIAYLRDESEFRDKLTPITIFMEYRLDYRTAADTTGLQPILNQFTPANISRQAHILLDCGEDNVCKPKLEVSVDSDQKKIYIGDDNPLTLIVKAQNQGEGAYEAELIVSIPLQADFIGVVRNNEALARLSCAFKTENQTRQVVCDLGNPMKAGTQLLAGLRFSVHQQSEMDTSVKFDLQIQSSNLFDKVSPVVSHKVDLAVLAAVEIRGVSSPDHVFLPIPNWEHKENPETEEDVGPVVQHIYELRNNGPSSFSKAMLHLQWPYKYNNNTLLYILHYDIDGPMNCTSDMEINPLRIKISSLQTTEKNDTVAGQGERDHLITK
T1 sequence (P06756 891-1048 limits assumed): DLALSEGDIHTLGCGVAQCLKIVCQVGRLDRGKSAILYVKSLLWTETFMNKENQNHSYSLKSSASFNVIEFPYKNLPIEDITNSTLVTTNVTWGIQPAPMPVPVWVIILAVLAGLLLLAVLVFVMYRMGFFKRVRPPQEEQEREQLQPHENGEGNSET
From the text: Table printed on a drawing sheet, Figure 7
Head of the field: IC50 (μM)
The patent's description of the figure: FIG. 7 Competitive binding of NGR-TNF to αvβ3 with NGR-pep and its deamidated products to αvβ3.
First copying reader's note: Legend table of panel A (inhibition of bio-NGR-TNF binding to αvβ3): the first three body rows belong to the upper plot and the last five to the lower plot, which prints no head of its own; the plot marker symbols are left out.
Where the first naming reader finds the target: description_of_the_figure: FIG. 7 Competitive binding of NGR-TNF to αvβ3 with NGR-pep and its deamidated products to αvβ3.

EA.hy926 cells = assay: EA.hy926 cell adhesion assay on coated microtiter plates; format: cell-based, human; conditions: for EA.hy926 cell adhesion to coated product after heat-treatment: 0.1 M ammonium bicarbonate buffer, pH 8.5, 16 h at 37° C.; for EA.hy926 cell adhesion to coated product: before heat treatment
Method: Adhesion of EA.hy926 cells to microtiter plates coated with various peptides and proteins before and after accelerated aging. Accelerated aging was performed by peptide incubation in 0.1 M ammonium bicarbonate buffer, pH 8.5, for 16 h at 37° C. (“heat-treatment”). Adhesion to: recombinant FN-I4-5 or control protein (FN-I4-5 (SGS)) (A), synthetic FN-I5 (B), recombinant CNGRC-TNF, CNGRC-TNF1-11 and control CARAC-TNF1-11 peptide (C), CDGRC-TNF (D). Heat-treated (37° C.) and untreated (−20° C.) products were adsorbed onto the plastic surface of microtiter wells (overnight at 4° C.). Microphotograph of wells coated with 30 μg/ml of heat-treated FN-I5 or BSA (B, right) or with 10 μg/ml of recombinant CNGRC-TNF or CDGRC-TNF (C, right), ×200. Cell adhesion assay was carried out as described in Materials and Methods. The TNF fusion constructs, including the TNF1-11 fusion constructs, were made as described Materials and Methods, and include a “G” linker.
Untreated and “heat treated” fibronectin fragments, peptides and peptide-TNF conjugates were diluted at the desired concentration with 150 mM sodium chloride, 50 mM sodium phosphate, pH 7.3, and added to 96-well polyvinyl chloride microtiter plates (Falcon, Becton Dickinson). After overnight incubation at 4° C., the plates were washed, seeded with EA.hy926 cell in DMEM containing 0.1% BSA (40000 cells/well) and left to incubate for 2-3 h at 37° C., 5% CO2. Adherent cells were fixed and stained with crystal violet as described (Curnis et al., 2005).

L-M mouse fibroblasts = assay: standard cytolytic assay with L-M mouse fibroblasts; format: cell-based; conditions: in vitro, L-M murine fibroblasts
From the text: Protein purity and identity were checked by SDS-PAGE, electrospray mass spectrometry and gel-filtration chromatography.
The cDNA coding for DGR-TNF (mouse TNF fused with the C-terminus of CDGRCG (SEQ ID NO: 24)) was obtained by PCR on NGR-TNF plasmid, using the following primers: 5′ […] 3′ (SEQ ID NO: 43) (5′ primer); 5′ […] ′3 (SEQ ID NO: 44) (3′ primer). Both primers were designed to allow the directional cloning into a pET101/D-TOPO plasmid expression kit (Invitrogen). The underlined sequence in 5′ primer contains the sequence necessary to enable the directional cloning and the initial translation codon whereas the 3′ primer contains the stop codon (underlined). The PCR reaction and the cloning procedure were performed as recommended by the manufacturer's instruction. […] The column was washed extensively 100 mM Tris-HCl buffer containing pH 8.0, loaded with DGR-TNF crude extract, diluted in 20 mM Tris-HCl buffer conatining 2 mM EDTA pH 8.0, and desorbed by elution with 7 M urea, 100 mM Tris-HCl, pH 8.0. DGR-TNF was then refolded as described (1). Briefly, the denatured products were dialyzed against 2.33 M urea, 100 mM Tris-HCl, pH 8.0 at 4° C. (140 min), followed by 1.55 M urea, 100 mM Tris-HCl, pH 8.0 (140 min), and 1 M urea, 100 mM Tris-HCl, pH 8 (140 min). Finally the products were dialyzed against 100 mM Tris-HCl, pH 8.0 (48 h). The products were centrifuged at 13000×g (10 min, 4° C.) and concentrated by ultra-filtration through a 10 KDa cut-off filter. All solutions used in the purification and refolding steps were prepared with sterile and endotoxin-free water (S.A.L.F. Laboratorio Farmacologico SpA, Bergamo, Italy). Protein concentration was measured using the BCA Protein Assay Reagent (Pierce, Rockford, Ill.). Protein purity and identity were checked by SDS-PAGE, electrospray mass spectrometry (ESI-MS) and analytical gel-filtration chromatography.

αvβ3 integrin = molecular target: T2, αvβ3 integrin (Homo sapiens, UniProt P05106+P06756); assay: competitive binding of biotinylated FN-I5/streptavidin-peroxidase complexes to αvβ3-coated plates; conditions: in words, FIG. 6C
T2 construct: purchased Immunological Sciences
T2 sequence (P06756 31-889 limits assumed): as the sequence (P06756 31-889 limits assumed) above
T2 sequence (P06756 891-1048 partner limits assumed): as the sequence (P06756 891-1048 limits assumed) above
T2 sequence (P05106 27-788): as the sequence (P05106 27-788 limits assumed) above
Method: (C) Competitive binding of biotinylated FN-I5/streptavidin-peroxidase complexes to αvβ3-coated plates with various amounts of FN-I4-5 or FN-I4-5SGS (upper panel or peptides corresponding to the NGR loop (residues 258-271) of FN-I5 before and after heat treatment (lower panel).
Binding of biotinylated peptides (CNGRC (SEQ ID NO: 6)-TNF1-11, CARAC (SEQ ID NO: 36)-TNF1-11 and FN-I5) to purified integrins was studied using streptavidin-peroxidase conjugate complexes. Complexes were prepared by mixing various quantities (0.5-1 μg) of heat-treated biotinylated peptides in DPBS containing 3% BSA with 0.03 units of streptavidinperoxidase (binding capacity: 1 μg of biotin/unit of streptavidin-peroxidase) (final volume 15 μl). Complexes were diluted in 3% BSA-DPBS (1:500), added to microtiterplates coated with integrins as described above, and incubated for 2 h at room temperature. After washing with DPBS, bound peroxidase was detected by chromogenic reaction as described above. Each assay was carried out in triplicate.
The binding of heat-treated FN-I5, CNGRC (SEQ ID NO: 6)-TNF and short peptides to purified αvβ3, αvβ5, α5β1 and α1β1 integrins was then investigated by direct and competitive ELISA with integrins adsorbed on microtiterplates.

Molecule: CC(C)[C@H](NC(=O)CNC(=O)[C@@H]1CSSC[C@H](N)C(=O)N[C@H](CC(=O)O)C(=O)NCC(=O)N[C@@H](CCCNC(=N)N)C(=O)N1)C(=O)N[C@@H](CCCNC(=N)N)C(=O)N[C@@H](Cc1ccc(O)cc1)C(=O)O [DDGR-pep] (H-C[dD]GRCGVRY-OH; disulfide 1-5 (inferred); N-terminus and C-terminus assumed)
- stability under integrin binding assay conditions [1]: stable

Molecule: CC(C)[C@H](NC(=O)CNC(=O)[C@@H]1CSSC[C@H](N)C(=O)N[C@@H](CC(=O)O)C(=O)NCC(=O)N[C@@H](CCCNC(=N)N)C(=O)N1)C(=O)N[C@@H](CCCNC(=N)N)C(=O)N[C@@H](Cc1ccc(O)cc1)C(=O)O [DGR-pep] (H-CDGRCGVRY-OH; disulfide 1-5; N-terminus and C-terminus assumed)
- IC50 (αvβ3): 60 µM

Molecule: CC(C)[C@H](NC(=O)CNC(=O)[C@@H]1CSSC[C@H](N)C(=O)N[C@@H](CC(N)=O)C(=O)NCC(=O)N[C@@H](CCCNC(=N)N)C(=O)N1)C(=O)N[C@@H](CCCNC(=N)N)C(=O)N[C@@H](Cc1ccc(O)cc1)C(=O)O [NGR-pep, CNGRCGVRY] (H-CNGRCGVRY-OH; disulfide 1-5; N-terminus and C-terminus assumed)
- IC50 (αvβ3): 25 µM
- stability when stored in water ([1]; 37° C., water): stable for more than one week
- half-life ([1]; ammonium bicarbonate buffer and DMEM, 37° C., pH 8.5 ammonium bicarbonate and DMEM pH 7.3 (FIG. 5 legend), read-out: half-life of conversion to DGR-pep and isoDGR-pep): 2 to 4 h
- half-life ([1]; ammonium bicarbonate buffer, pH 8.5 (0.1 M ammonium bicarbonate), 37° C., read-out: half-life (height of main chromatographic peak) (converted)): ~2 h
- half-life ([1]; pH 7.3 (DMEM), 37° C., read-out: half-life (height of main chromatographic peak) (converted)): ~4 h

Molecule: Cys-Asp-Gly-Arg-Cys-Gly-(SEQ ID NO: 24)TNF [CDGRC-TNF]
- EA.hy926 cell adhesion to coated product after heat-treatment (EA.hy926 cells): completely inactive
- EA.hy926 cell adhesion to coated product (EA.hy926 cells): completely inactive
- Cytolytic Activity (L-M mouse fibroblasts): 2.59 (±0.69)×10^8 U/mg
- Cytolytic Activity (L-M mouse fibroblasts; listed as DGR-TNF): 2.5×10^8 U/mg

Molecule: FN-I4-5: recombinant human fibronectin 4-5th type I repeats, residue 184-273, His-tag at the N-terminus
- EA.hy926 cell adhesion to coated product after heat-treatment (EA.hy926 cells): increase of cell adhesion
- EA.hy926 cell adhesion to coated product (EA.hy926 cells): promoted cell adhesion
- competition of the binding of FN-I5 to αvβ3 (αvβ3 integrin): could compete

Molecule: Loop-GNGRG: peptide corresponding to the NGR loop of FN-I5 (LQCISTGNGRGEWKCE)
- competition of the binding of FN-I5 to αvβ3 (αvβ3 integrin): Binding competition was observed

Continued, values first:

- IC50 (αvβ3): > 1000 µM
Molecule: CC(C)[C@H](NC(=O)CNC(=O)[C@@H]1CSSC[C@H](N)C(=O)N[C@@H](CO)C(=O)NCC(=O)N[C@@H](CCCNC(=N)N)C(=O)N1)C(=O)N[C@@H](CCCNC(=N)N)C(=O)N[C@@H](Cc1ccc(O)cc1)C(=O)O [SGR-pep] (H-CSGRCGVRY-OH; disulfide 1-5; N-terminus and C-terminus assumed)

- stability under integrin binding assay conditions [1]: stable
Molecule: CC(C)[C@H](NC(=O)CNC(=O)[C@@H]1CSSC[C@H](N)C(=O)N[C@H](C(=O)O)CC(=O)NCC(=O)N[C@@H](CCCNC(=N)N)C(=O)N1)C(=O)N[C@@H](CCCNC(=N)N)C(=O)N[C@@H](Cc1ccc(O)cc1)C(=O)O [isoDGR-pep] (H-C[βAsp]GRCGVRY-OH; disulfide 1-5 (inferred); N-terminus and C-terminus assumed)

- competition of the binding of FN-I5 to αvβ3 (αvβ3 integrin): not
Molecule: Loop-RGGNG: control loop peptide of FN-I5 with scrambled sequence at the GNGRG site (LQCISTRGGNGEWKCE) [reference compound]
